Assay type in all cases: in vivo, Mycosphaerella graminicola on wheat plants (variety Yuma)
Assay [1] in a line: Leaf blotch of wheat fungicidal activity, Type B assay (10% EC formulation in 0.1% Trycol 5941, track sprayer 200 L/ha), field isolate. As to conditions: Zymoseptoria tritici, 72 h, field isolate (Wellsbourne, England 2012), wheat seedlings (Yuma). The procedure:
(§1) Evaluation of Fungicidal Activity: Leaf Blotch of Wheat (Mycosphaerella graminicola; Anamorph: Septoria tritici; Bayer code SEPTTR):
(§2) For Type A assays, technical grades of the experimental fungicides in Table 4 below were dissolved in acetone, and then mixed with nine volumes of water containing 110 ppm Triton X-100. The fungicide solutions were applied onto wheat seedlings using an automated booth sprayer. For Type B assays, emulsifiable concentrate (EC) formulations of technical grades of experimental fungicides in Table 4 below were prepared at 10% (w/v), and then mixed with 150 volumes of 0.1% Trycol 5941. The fungicide solutions were applied onto wheat seedlings using an automated track sprayer at 200 L/ha. All sprayed plants were allowed to air dry prior to further handling.
(§3) Wheat plants (variety Yuma) were grown from seed in a greenhouse in 50% mineral soil/50% soil-less Metro mix until the first leaf was fully emerged, with 7-10 seedlings per pot. Prior to or after application of experimental fungicides, plants were inoculated either with spores of a standard laboratory SEPTTR isolate (SI SEPTTR) or with spores from a SEPTTR field isolate collected from Wellsbourne, England in 2012 (FI SEPTTR). After inoculation, the plants were kept for 3 days at 20° C. in 100% relative humidity (one day in a dark dew chamber followed by two days in a lighted dew chamber). Plants were then transferred to a 20° C. greenhouse for disease development. When disease symptoms were fully expressed on untreated plants, infection levels on treated plants were assessed on a scale of 0 to 100 percent disease severity. Percent disease control was calculated using the ratio of disease severity on treated plants relative to untreated plants.

The subject of assay [2] is standard laboratory SEPTTR isolate (SI SEPTTR); Mycosphaerella graminicola; Anamorph: Septoria tritici. The experiment in a line: Leaf blotch of wheat fungicidal activity, Type B assay (10% EC formulation in 0.1% Trycol 5941, track sprayer 200 L/ha), standard laboratory isolate. As to conditions: Zymoseptoria tritici, 72 h, wheat seedlings (Yuma). The procedure: as §1, §2, §3

The test system is the same in assay [3]. Put plainly: Leaf blotch of wheat fungicidal activity, Type A assay (technical grade in acetone/water with Triton X-100, booth sprayer), standard laboratory isolate. The note with it: Zymoseptoria tritici, 24 h, 1 Day Protectant, wheat seedlings (Yuma), read-out: Disease control, SI SEPTTR Type A Assay (50 ppm) 1DP. The procedure: as §1, §2, §3
Setting [4] is: 3 Day Curative, read-out: Disease control, FI SEPTTR Type B Assay (100 g/ha) 3DC.
The mark [5] stands for this setting: 3 Day Protectant, read-out: Disease control, FI SEPTTR Type B Assay (100 g/ha) 3DP.
The mark [6] stands for this setting: 3 Day Curative, read-out: Disease control, SI SEPTTR Type B Assay (100 g/ha) 3DC.
Setting [7] is: 3 Day Protectant, read-out: Disease control, SI SEPTTR Type B Assay (100 g/ha) 3DP.

Like-named read-outs stand apart in the source and are kept apart here.

Consider `CC(C)(C)C(O)(c1ccc(-c2ccc(OC(F)(F)F)cc2)cc1)c1cncnc1` (stereo not drawn) [Compound 1, 2,2-dimethyl-1-(pyrimidin-5-yl)-1-(4′-(trifluoromethoxy)-[1,1′-biphenyl]-4-yl)propan-1-ol], for which the pest or weed control at 100 g/ha in assay [1] (setting [4]), in assay [1] (setting [5]), in assay [2] (setting [6]) and in assay [2] (setting [7]) was 80 to 100% each time. Also, in assay [3], the pest or weed control at 50 ppm fell in the range of 80 to 100%. For the compound `CC(C)(C)C(O)(c1ccc(-c2ccc(OC(F)F)cc2)cc1)c1cncnc1` (stereo not drawn) [Compound 2], the pest or weed control at 100 g/ha in assay [1] (setting [4]), in assay [1] (setting [5]), in assay [2] (setting [6]) and in assay [2] (setting [7]) was 80 to 100% each time. In assay [3], the pest or weed control at 50 ppm lay within 80 to 100%.

In the case of `CC(C)(C)C(O)(c1ccc(-c2ccc(C(F)(F)F)nc2)cc1)c1cncnc1` (stereo not drawn) [Compound 7], the pest or weed control at 50 ppm in assay [3] was 80 to 100%. Still for that read-out and setting: for `CC(C)(C)C(O)(c1ccc(-c2ccccc2OC(F)(F)F)cc1)c1cncnc1` (stereo not drawn) [Compound 12] the value was 60 to 79%; for `COc1ccc(-c2ccc(C(O)(c3cncnc3)C(C)(C)C)cc2)cc1` (stereo not drawn) [Compound 13], 80 to 100%. For the compound `CC(C)(C)C(O)(c1cncnc1)c1ccc(-c2ccc(OC(F)(F)F)cc2)cc1F` (stereo not drawn) [Compound 15], the pest or weed control at 100 g/ha in assay [1] (setting [4]) fell in the range of 60 to 79%; in assay [1] (setting [5]), 80 to 100%; in assay [2] (setting [6]) it was 80 to 100%; in assay [2] (setting [7]) it was 80 to 100%. `CC(C)(C)C(O)(c1cncnc1)c1ccc(-c2ccc(OC(F)F)cc2)cc1F` (stereo not drawn) [Compound 16]: the pest or weed control at 100 g/ha in assay [1] (setting [4]), in assay [1] (setting [5]), in assay [2] (setting [6]) and in assay [2] (setting [7]) was 80 to 100% throughout. For `CC(C)(C)C(O)(c1cncnc1)c1ccc(-c2ccc(C#N)cc2)cc1F` (stereo not drawn) [Compound 17], the pest or weed control at 100 g/ha in assay [1] (setting [4]), in assay [1] (setting [5]), in assay [2] (setting [6]) and in assay [2] (setting [7]) was 80 to 100% each time. `CC(C)(C)C(O)(c1ccc(-c2ccc(SC(F)(F)F)cc2)cc1)c1cncnc1` (stereo not drawn) [Compound 19]: the pest or weed control at 100 g/ha in assay [1] (setting [4]) lay in the range of 80 to 100%; in assay [1] (setting [5]), 80 to 100%; in assay [2] (setting [6]) it was 80 to 100%; in assay [2] (setting [7]), 60 to 79%. In the case of `CC(C)(C)C(O)(c1cncnc1)c1ccc(-c2ccc(Cl)cc2)cc1Cl` (stereo not drawn) [Compound 22], the pest or weed control at 100 g/ha in assay [1] (setting [4]), in assay [1] (setting [5]), in assay [2] (setting [6]) and in assay [2] (setting [7]) was 80 to 100% throughout.

As to `CC(C)(C)C(O)(c1cncnc1)c1ccc(-c2ccc(C(F)(F)F)nc2)cc1Cl` (stereo not drawn) [Compound 23], the pest or weed control at 100 g/ha in assay [1] (setting [4]), in assay [1] (setting [5]), in assay [2] (setting [6]) and in assay [2] (setting [7]) was 80 to 100% in each case. For `CC(C)(C)C(O)(c1cncnc1)c1ccc(-c2ccc(C(F)(F)F)nc2)cc1F` (stereo not drawn) [Compound 24], the pest or weed control at 100 g/ha in assay [1] (setting [4]), in assay [1] (setting [5]), in assay [2] (setting [6]) and in assay [2] (setting [7]) was 80 to 100% in each case. Regarding `CC(C)(C)C(O)(c1cncnc1)c1ccc(-c2ccccc2)cc1Cl` (stereo not drawn) [Compound 27], the pest or weed control at 50 ppm in assay [3] lay within 80 to 100%. The same measure, in the same setting: under `CC(C)(C)C(O)(c1cncnc1)c1ccc(-c2ccccc2)cc1F` (stereo not drawn) [Compound 28] stands 80 to 100%; under `CC(C)(C)C(O)(c1ccc(-c2ccc(C(F)(F)F)cc2F)cc1)c1cncnc1` (stereo not drawn) [Compound 29], 80 to 100%.

For `CC(C)(C)C(O)(c1cncnc1)c1ccc(-c2ccc(C(F)(F)F)cc2F)cc1F` (stereo not drawn) [Compound 31], the pest or weed control at 50 ppm in assay [3] was in the range of 80 to 100%. Same read-out and setting: under `CC(C)(C)c1ccc(-c2ccc(C(O)(c3cncnc3)C(C)(C)C)cc2)cc1` (stereo not drawn) [Compound 33] stands 80 to 100%; under `Cc1cc(-c2ccc(OC(F)(F)F)cc2)ccc1C(O)(c1cncnc1)C(C)(C)C` (stereo not drawn) [Compound 34], 80 to 100%; under `Cc1cc(-c2ccc(SC(F)(F)F)cc2)ccc1C(O)(c1cncnc1)C(C)(C)C` (stereo not drawn) [Compound 35], 80 to 100%. Still for that read-out and setting: under `Cc1cc(-c2ccc(OC(F)F)cc2)ccc1C(O)(c1cncnc1)C(C)(C)C` (stereo not drawn) [Compound 36] stands 80 to 100%; under `Cc1cc(-c2ccc(C#N)cc2)ccc1C(O)(c1cncnc1)C(C)(C)C` (stereo not drawn) [Compound 37], 80 to 100%. Still for that read-out and setting: for `Cc1cc(-c2ccc(C3(C#N)CC3)cc2)ccc1C(O)(c1cncnc1)C(C)(C)C` (stereo not drawn) [Compound 38] the value was 80 to 100%; for `Cc1cc(-c2ccc(C(C)(C)C)cc2)ccc1C(O)(c1cncnc1)C(C)(C)C` (stereo not drawn) [Compound 39], 80 to 100%.

For `Cc1cc(OC(F)(F)F)ccc1-c1ccc(C(O)(c2cncnc2)C(C)(C)C)c(C)c1` (stereo not drawn) [Compound 40], the pest or weed control at 50 ppm in assay [3] fell in the range of 80 to 100%. For `Cc1cc(-c2ccc(OC(F)(F)F)cc2F)ccc1C(O)(c1cncnc1)C(C)(C)C` (stereo not drawn) [Compound 41], in assay [3], the pest or weed control at 50 ppm lay within 80 to 100%. The same measure, in the same setting: for `Cc1cc(-c2ccc(C(C)(C)C#N)cc2)ccc1C(O)(c1cncnc1)C(C)(C)C` (stereo not drawn) [Compound 42] the value was 80 to 100%; for `Cc1cc(-c2ccc(CC#N)cc2)ccc1C(O)(c1cncnc1)C(C)(C)C` (stereo not drawn) [Compound 43], 40 to 59%; for `COc1cc(-c2ccc(OC(F)(F)F)cc2)ccc1C(O)(c1cncnc1)C(C)(C)C` (stereo not drawn) [Compound 44], 80 to 100%. Same read-out and setting: under `COc1cc(-c2ccc(OC(F)F)cc2)ccc1C(O)(c1cncnc1)C(C)(C)C` (stereo not drawn) [Compound 45] stands 80 to 100%; under `COc1cc(-c2ccc(SC(F)(F)F)cc2)ccc1C(O)(c1cncnc1)C(C)(C)C` (stereo not drawn) [Compound 46], 80 to 100%; under `COc1cc(-c2ccc(C#N)cc2)ccc1C(O)(c1cncnc1)C(C)(C)C` (stereo not drawn) [Compound 47], 80 to 100%. On the same count and under the same terms, for `COc1cc(-c2ccc(CC#N)cc2)ccc1C(O)(c1cncnc1)C(C)(C)C` (stereo not drawn) [Compound 48] the value was 80 to 100%; for `COc1cc(-c2ccc(C3(C#N)CC3)cc2)ccc1C(O)(c1cncnc1)C(C)(C)C` (stereo not drawn) [Compound 49], 80 to 100%; for `COc1cc(-c2ccc(C(C)(C)C)cc2)ccc1C(O)(c1cncnc1)C(C)(C)C` (stereo not drawn) [Compound 51], 80 to 100%.

Regarding `COc1cc(-c2ccc(OC(F)(F)F)cc2C)ccc1C(O)(c1cncnc1)C(C)(C)C` (stereo not drawn) [Compound 52], in assay [3], the pest or weed control at 50 ppm is 60 to 79%. On the same count and under the same terms, under `COc1cc(-c2ccc(OC(F)(F)F)cc2F)ccc1C(O)(c1cncnc1)C(C)(C)C` (stereo not drawn) [Compound 53] stands 80 to 100%; under `CC(C)(C)C(O)(c1ccc(-c2ccc(OC(F)(F)F)cc2)cc1)c1cccnc1` (stereo not drawn) [Compound 54], 80 to 100%; under `CC(C)(C)C(O)(c1ccc(-c2ccc(SC(F)(F)F)cc2)cc1)c1cccnc1` (stereo not drawn) [Compound 55], 80 to 100%.

Regarding `CC(C)(C)C(O)(c1ccc(-c2ccc(OC(F)F)cc2)cc1)c1cccnc1` (stereo not drawn) [Compound 56], the pest or weed control at 50 ppm in assay [3] was in the range of 80 to 100%. The same measure, in the same setting: under `CC(C)(C)C(O)(c1ccc(-c2ccc(OCC(F)(F)F)cc2)cc1)c1cccnc1` (stereo not drawn) [Compound 57] stands 80 to 100%; under `CC(C)(C)C(O)(c1ccc(-c2ccc(C#N)cc2)cc1)c1cccnc1` (stereo not drawn) [Compound 58], 80 to 100%; under `CC(C)(C)C(O)(c1ccc(-c2ccc(CC#N)cc2)cc1)c1cccnc1` (stereo not drawn) [Compound 59], 80 to 100%. With `CC(C)(C)C(O)(c1ccc(-c2ccc(C3(C#N)CC3)cc2)cc1)c1cccnc1` (stereo not drawn) [Compound 60], in assay [3], the pest or weed control at 50 ppm was 80 to 100%. Still for that read-out and setting: for `CC(C)(C#N)c1ccc(-c2ccc(C(O)(c3cccnc3)C(C)(C)C)cc2)cc1` (stereo not drawn) [Compound 61] the value was 80 to 100%; for `CC(C)(C)c1ccc(-c2ccc(C(O)(c3cccnc3)C(C)(C)C)cc2)cc1` (stereo not drawn) [Compound 62], 80 to 100%. On the same count and under the same terms, for `Cc1cc(OC(F)(F)F)ccc1-c1ccc(C(O)(c2cccnc2)C(C)(C)C)cc1` (stereo not drawn) [Compound 63] the value was 80 to 100%.

(Values after patent US9957252B2, “Metalloenzyme inhibitor compounds as fungicides” (Dow AgroSciences LLC, priority 2014, dated 2018).)
